Drawing on ChEMBL document CHEMBL1141331, “Citromycetins and bilains A-C: new aromatic polyketides and diketopiperazines from Australian marine-derived and terrestrial Penicillium spp” (2007), this text covers LD99 for three molecules.

A short description of the test: Cytotoxicity against mouse NS1 cells. It counts as functional.

Take `CS[C@@H]1C(=O)N(C)[C@](Cc2ccc(OCC=C(C)C)cc2)(SC)C(=O)N1C` (relative stereo): the LD99 was found to be 0.15 µM.
Under `C[C@@H]1CC(=O)C2=C(O1)c1cc(O)c(O)cc1OC2` stands 0.05 µM; under `Cc1cc(=O)c2c(o1)-c1cc(O)c(O)cc1OC2` [CITROMYCIN], 0.1 µM.
